Measured values from patent publication US20220144841A1, “TRISUBSTITUTED PYRAZOLO [1,5-A] PYRIMIDINE COMPOUNDS AS CDK7 INHIBITORS” (THE TRANSLATIONAL GENOMICS RESEARCH INSTITUTE, priority 2019, published 2022).
Structures can show the parent of a compound that is named as a salt.

Molecular target: T1, CDK7/CycH/MAT1 (Homo sapiens, UniProt P50613)
T1 construct: purchased ProQinase 0366-0360-4
Experiment: Kinase ADP-Glo Assay
Assay type: biochemical
Settings: ADP-Glo assay (compounds without *), ATP 1 μM, 60 minutes at room temperature
Protocol: Assay Buffer: 50 mM HEPES, 3 mM MgCl2, 3 mM MnCl2, 1 mM DTT, 3 μM Na3VO4, pH 7.5
Substrate RB: CTF Peptide (ProQinase #: 0040-0000-6)
ADP-Glo™ Assay (Promega #: V9101): ATP: 10 mM, ADP-Glo™ Reagent, Kinase Detection Reagent
384-well white assay plates
A ten point serial dilution of compound was prepared at 5× concentration in assay buffer with the final assay concentrations starting at 30 μM, 10 μM, 3 μM, 1 μM . . . 0 μM. Enzyme, substrate, and ATP were used at 40 ng, 200 ng (or 400 ng)^+ and 1 μM, respectively. The assay plate was set up by mixing the components in a total reaction volume of 10 μL per well. The plate was centrifuged gently for 10 seconds and incubated at room temperature (RT) for 60 minutes in the dark. The ADP-Glo Reagent and kinase detection reagent were added and incubated as recommended. The reaction was quantified by measuring luminescence on the Perkin Elmer Envision plate reader. Data was analyzed using Graphpad Prism 7 software. *With CDK2 enzyme, 400 ng of substrate was used.

T1 sequence (P50613 whole entry): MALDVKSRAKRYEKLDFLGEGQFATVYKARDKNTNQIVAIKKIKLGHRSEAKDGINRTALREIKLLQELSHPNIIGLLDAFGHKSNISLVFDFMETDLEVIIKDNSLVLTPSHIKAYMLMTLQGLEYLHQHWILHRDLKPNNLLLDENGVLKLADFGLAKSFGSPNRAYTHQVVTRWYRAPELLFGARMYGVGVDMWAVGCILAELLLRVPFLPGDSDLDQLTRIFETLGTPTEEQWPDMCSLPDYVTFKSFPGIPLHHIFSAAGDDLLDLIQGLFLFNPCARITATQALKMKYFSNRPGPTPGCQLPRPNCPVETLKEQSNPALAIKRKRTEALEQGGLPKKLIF
T1 sequence (P51946 whole entry partner): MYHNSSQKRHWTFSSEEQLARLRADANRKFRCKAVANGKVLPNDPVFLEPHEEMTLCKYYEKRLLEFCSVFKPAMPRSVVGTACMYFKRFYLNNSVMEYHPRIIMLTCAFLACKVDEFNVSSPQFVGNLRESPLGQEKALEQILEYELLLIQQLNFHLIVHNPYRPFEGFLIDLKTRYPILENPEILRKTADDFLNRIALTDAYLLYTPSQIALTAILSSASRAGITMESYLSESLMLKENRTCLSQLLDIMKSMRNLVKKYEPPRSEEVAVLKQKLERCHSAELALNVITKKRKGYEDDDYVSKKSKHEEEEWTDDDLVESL
T1 sequence (P51948 whole entry partner): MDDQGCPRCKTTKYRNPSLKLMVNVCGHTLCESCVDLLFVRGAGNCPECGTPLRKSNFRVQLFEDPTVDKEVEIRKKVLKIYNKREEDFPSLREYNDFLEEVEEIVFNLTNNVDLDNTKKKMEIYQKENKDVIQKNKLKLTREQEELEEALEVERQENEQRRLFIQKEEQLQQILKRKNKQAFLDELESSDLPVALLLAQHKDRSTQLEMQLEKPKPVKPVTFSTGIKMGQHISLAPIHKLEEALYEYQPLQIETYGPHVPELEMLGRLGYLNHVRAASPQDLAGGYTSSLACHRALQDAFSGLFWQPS

| Structure (SMILES) | IC50 |
| --- | --- |
| Cc1cc(C#N)cc(Nc2cc(O[C@H]3CCCNC3)nc3c(C4CCC4)cnn23)c1 [Compound I-70, (S)-3-((3-cyclobutyl-5-((piperidin-3-yl)oxy)pyrazolo[1,5-a]pyrimidin-7-yl)amino)-5-methylbenzonitrile] | < 100 nM |
| N#Cc1cccc(Nc2cc(NC[C@H]3CCNC[C@@H]3O)nc3c(C4CC4)cnn23)c1 [Compound I-48, (3R,4R)-3-(((3-cyclopropyl-5-(3-hydroxypiperidin-4-yl)methylamino)pyrazolo[1,5-a]pyrimidin-7-yl)amino)benzonitrile] | < 100 nM |
| CS(=O)(=O)c1cccc(Nc2cc(NC[C@H]3CCNC[C@@H]3O)nc3c(C4CC4)cnn23)c1 [Compound I-51, (3R,4R)-((3-cyclopropyl-7-((3-methylsulfonylphenyl)amino)pyrazolo[1,5-a]pyrimidin-5-yl)aminomethyl)piperidin-3-ol] | < 100 nM |
| Fc1cccc(Nc2cc(OC[C@H]3CCCNC3)nc3c(C4CC4)cnn23)c1 [Compound I-14] | 100 to 1000 nM |
| N[C@H]1CC[C@H](Nc2cc(Nc3cccc(F)c3)n3ncc(C4CC4)c3n2)CC1 [Compound I-6, Trans-N^5-(4-aminocyclohexyl)-3-cyclopropyl-N^7-(3-fluorophenyl)pyrazolo[1,5-a]pyrimidine-5,7-diamine] | 100 to 1000 nM |
| Cc1cc(F)cc(Nc2cc(O[C@@H]3CNC[C@@H](O)C3)nc3c(C4CCC4)cnn23)c1 (relative stereo) [Compound I-57, trans-5-((3-cyclobutyl-7-((3-fluoro-5-methylphenyl)amino)pyrazolo [1,5-a]pyrimidin-5-yl)oxy)piperidin-3-ol] | < 100 nM |
| N#Cc1cc(F)cc(Nc2cc(OC[C@H]3CCCNC3)nc3c(C4CCC4)cnn23)c1 [Compound I-60, (S)-3-((3-cyclobutyl-5-((piperidin-3-yl)methoxy)pyrazolo[1,5-a]pyrimidin-7-yl)amino)-5-fluorobenzonitrile] | > 1000 nM |
| Cc1cccc(CNc2cc(N[C@H]3CCCNC3)nc3c(C#N)cnn23)c1 [Compound I-30, (S)-7-((3-methylbenzyl)amino)-5-((piperidin-3-yl)amino)pyrazolo[1,5-a]pyrimidine-3-carbonitrile] | 100 to 1000 nM |
| O[C@@H]1CNCC[C@H]1CNc1cc(Nc2cccc(F)c2)n2ncc(C3CC3)c2n1 [Compound I-17] | 100 to 1000 nM |
| Cc1cc(C#N)cc(Nc2cc(NC[C@H]3CCNC[C@@H]3O)nc3c(C4CC4)cnn23)c1 [Compound I-54, (3R,4R)-3-((3-cyclopropyl-5-((3-hydroxypiperidin-4-yl)methylamino)pyrazolo[1,5-a]pyrimidin-7-yl)amino)-5-methylbenzonitrile] | < 100 nM |
| N[C@H]1CC[C@@H](Nc2cc(Nc3cccc(F)c3)n3ncc(C4CC4)c3n2)CC1 [Compound I-7, Cis-N^5-(4-aminocyclohexyl)-3-cyclopropyl-N^7-(3-fluorophenyl)pyrazolo[1,5-a]pyrimidine-5,7-diamine] | 100 to 1000 nM |
| O[C@H]1CNCC[C@@H]1CNc1cc(Nc2cccc(F)c2)n2ncc(C3CC3)c2n1 [Compound I-45, (3R,4R)-4-((3-cyclopropyl-7-((3-fluorophenyl)amino)pyrazolo [1,5-a]pyrimidin-5-yl)aminomethyl)piperidin-3-ol] | < 100 nM |
| Fc1cccc(Nc2cc(O[C@H]3CCCNC3)nc3c(C4CC4)cnn23)c1 [Compound I-4, (S)-3-cyclopropyl-N-(3-fluorophenyl)-5-((piperidin-3-yl)oxy)pyrazolo[1,5-a]pyrimidin-7-amine] | < 100 nM |
| O[C@@H]1CNCC[C@H]1CNc1cc(Nc2cccc(F)c2)n2ncc(C3CC3)c2n1 [Compound I-11, (3S,4S)-4-(((3-cyclopropyl-7-((3-fluorophenyl)amino)pyrazolo [1,5-a]pyrimidin-5-yl)amino)methyl)piperidin-3-ol] | < 100 nM |
| FC(F)(F)c1cccc(Nc2cc(N[C@H]3CCCNC3)nc3c(C4CC4)cnn23)c1 [Compound I-8] | < 100 nM |
| Cc1cc(F)cc(Nc2cc(NC[C@H]3CCNC[C@@H]3O)nc3c(C4CCC4)cnn23)c1 [Compound I-52, (3R,4R)-((3-cyclobutyl-7-((3-fluoro-5-methylphenyl)amino)pyrazolo [1,5-a]pyrimidin-5-yl)aminomethyl)piperidin-3-ol] | < 100 nM |
| O[C@H]1CCNC[C@@H]1Nc1cc(Nc2cccc(F)c2)n2ncc(C3CC3)c2n1 [Compound I-21, (3S,4S)-3-((3-cyclopropyl-7-((3-fluorophenyl)amino)pyrazolo [1,5-a]pyrimidin-5-yl)amino)piperidin-4-ol hydrochloride] | > 1000 nM |
| FC(F)(F)Cc1cccc(Nc2cc(N[C@H]3CCCNC3)nc3c(C4CC4)cnn23)c1 [Compound I-10] | 100 to 1000 nM |
| Cc1cc(Nc2cc(O[C@H]3CCCNC3)nc3c(C4CCC4)cnn23)cc(C(F)(F)F)c1 [Compound I-66, (S)-3-cyclobutyl-N-(5-methyl-3-trifluoromethylphenyl)-5-((piperidin-3-yl)oxy)pyrazolo[1,5-a]pyrimidin-7-amine] | < 100 nM |
| N#Cc1cccc(Nc2cc(NC[C@@H]3CCNC[C@H]3O)nc3c(C4CC4)cnn23)c1 [Compound I-15, (3S,4S)-3-((3-cyclopropyl-5-(((3-hydroxy)piperidin-4-yl)methylamino)pyrazolo[1,5-a]pyrimidin-7-yl)amino)benzonitrile] | 100 to 1000 nM |
| Cc1cc(F)cc(Nc2cc(N[C@@H]3CNC[C@@H](O)C3)nc3c(C4CCC4)cnn23)c1 [Compound I-56, (3S,5S)-5-((3-cyclobutyl-7-((3-fluoro-5-methylphenyl)amino)pyrazolo [1,5-a]pyrimidin-5-yl)amino)piperidin-3-ol] | 100 to 1000 nM |
| O[C@@H]1CNCC[C@H]1CNc1cc(Nc2cc(F)cc(F)c2)n2ncc(C3CC3)c2n1 [Compound I-47, (3S,4S)-4-((3-cyclopropyl-7-((3,5-difluorophenyl)amino)pyrazolo[1,5-a]pyrimidin-5-yl)aminomethyl)piperidin-3-ol] | 100 to 1000 nM |
| N#Cc1cc(F)cc(Nc2cc(NC[C@H]3CCNC[C@@H]3O)nc3c(C4CCC4)cnn23)c1 [Compound I-55, (3R,4R)-3-((3-cyclobutyl-5-((3-hydroxypiperidin-4-yl)methylamino)pyrazolo[1,5-a]pyrimidin-7-yl)amino)-5-fluorobenzonitrile] | < 100 nM |
| O[C@H]1CNCC[C@@H]1CNc1cc(Nc2cccc(F)c2)n2ncc(C3CCC3)c2n1 [Compound I-50] | < 100 nM |
| Cc1cc(F)cc(Nc2cc(NC[C@H]3CCCNC3)nc3c(C4CCC4)cnn23)c1 [Compound I-59, (S)-3-cyclobutyl-N^7-(3-fluoro-5-methylphenyl)-N^5-((piperidin-3-yl)methyl)pyrazolo[1,5-a]pyrimidine-5,7-diamine] | > 1000 nM |
| O[C@H]1CNCC[C@@H]1CNc1cc(Nc2cc(F)cc(F)c2)n2ncc(C3CC3)c2n1 [Compound I-46, (3R,4R)-4-((3-cyclopropyl-7-((3,5-difluorophenyl)amino)pyrazolo[1,5-a]pyrimidin-5-yl)aminomethyl)piperidin-3-ol] | 100 to 1000 nM |
| Cc1cc(F)cc(Nc2cc(O[C@H]3CCCNC3)nc3c(C4CCC4)cnn23)c1 [Compound I-58, (S)-3-cyclobutyl-N-(3-fluoro-5-methylphenyl)-5-((piperidin-3-yl)oxy)pyrazolo[1,5-a]pyrimidin-7-amine] | < 100 nM |
